Measured values: publication PMC7326067, “The Critical Role of Tryptophan in the Antimicrobial Activity and Cell Toxicity of the Duck Antimicrobial Peptide DCATH” (Frontiers in Microbiology, 2020)
Where no end group is shown, it is not given here.

Columns and labels:
E. coli ATCC 25922 = format: cell-based, Escherichia coli; details: ATCC 25922, 24 h
Experimental: (§1) Three types of Gram-positive bacteria (Staphylococcus epidermidis ATCC 12228, Staphylococcus aureus 29213 and Enterococcus faecalis ATCC 29212) and four types of Gram-negative bacteria (Escherichia coli UB1005, Escherichia coli ATCC 25922, Salmonella typhimurium ATCC 14028 and Salmonella pullorum C79–13) preserved in our lab were cultured in the medium of Muller-Hinton broth (MHB) medium (1.75% casamino acid, 0.2% beef extract, 0.15% soluble starch, pH 7.0). The murine macrophage cell line RAW 264.7 cells were procured from the American Type Culture Collection (Manassas, VA, United States) and cultured in DMEM containing 10% fetal bovine serum […], penicillin (100 units/ml) and streptomycin (100 units/ml) in 5% CO2 at 37°C.
(§2) The antimicrobial activity of peptides was examined against representative strains of Gram-positive bacteria (S. aureus ATCC 29213, S. epidermidis ATCC 12228 and E. faecalis ATCC 29212) and Gram-negative bacteria (E. coli ATCC 25922, E. coli UB1005, S. pullorum C79–13, and S. typhimurium ATCC 14028) which were cultured in MHB medium. Antimicrobial activity assay was performed according to a modified version of broth microdilution method ([Gao et al., 2015]). When grown to an OD600 of 0.4, the bacterial stains cultured in MHB were diluted to a final concentration of about 1 × 10^5 CFU/ml. Fifty microliter of microbial solution and 50 μl of two-fold diluted concentrations of peptides [0.2% (w/v) bovine serum albumin, 0.01% (v/v) acetic acid] were mixed in the sterile 96-well plate and cultured at 37°C for 24 h. MICs were identified as the lowest peptide concentration that no bacteria growth was observed by OD determination (492 nm). Each experiment was performed in triplicate. The geometric mean (GM) of the MICs of a peptide was calculated on the MIC values of the peptide against all tested bacteria, and was used to evaluate the antimicrobial activity of the peptide. The therapeutic index (TI) was defined as the ratio of the minimum hemolytic concentration (MHC) to the GM and was used to measure the peptide cell selectivity toward the component with negative charge of bacterial cell membranes over the zwitterionic membranes mammalian cells. TI was calculated as the ratio of the HC10 (the peptide concentration needed to reach 10% lysis of hRBCs) value to the GM (TI = HC10/GM).

E. faecalis ATCC 29212 = format: cell-based, Enterococcus faecalis; details: ATCC 29212, 24 h
Experimental: as §1, §2

S. aureus ATCC 29213 = format: cell-based, Staphylococcus aureus; details: ATCC 29213, 24 h
Experimental: as §1, §2

[1] = tested on: Human red blood cells (hRBCs); format: cell-based; details: for MHC (minimum hemolytic concentration): red cells of human, 1 h
Experimental: The hemolytic activity assay of these peptides was performed according to the method of [Gao et al. (2015)]. Human red blood cells (hRBCs) donated by a healthy adult were collected by centrifugation and washed by phosphate-buffered saline (PBS) solution (pH 7.2). 1% (v/v) suspension of hRBCs in PBS was incubated with different concentrations of peptides dissolved in PBS for 1 h at 37°C. Absorbance in the supernatant was monitored at 405 nm. hRBCs in 0.1% Triton X-100 and PBS were used as positive and negative controls, respectively. The hemolysis percentage was calculated as follows:
%hemolysis=[A-sampleA]blank/[A-TritonA]blank×100.
FIGURE 1 Hemolytic and toxicity activity of the peptides. (A,B) Hemolytic activity against hRBCs. (C,D) Toxicity activity against RAW264.7 cells. Hemolytic activity was evaluated by incubating individual peptides in serial 2-fold dilutions with freshly isolated hRBCs at 37°C for 1 h, followed by measuring the released hemoglobin at 405 nm. For negative and positive controls, hRBCs in PBS and 0.1% Triton X-100 were used, respectively. Toxicity activity of the peptides against RAW264.7 was determined using MTT method. The peptides were incubated with RAW264.7 in a 96-well microtiter plate. After incubation with MTT, the supernatant was discarded and DMSO was added and the optical density (OD) at 570 nm was measured.

[2] = tested on: S. epidermidis ATCC 12228; format: cell-based, Staphylococcus epidermidis; details: ATCC 12228, 24 h
Experimental: as §1, §2

all tested bacteria = test: MIC over all tested bacteria (geometric mean); format: cell-based; details: calculated on the MIC values against all tested bacteria (7 strains)
Experimental: as §1, §2

[3] = tested on: S. typhimurium ATCC 14028; format: cell-based, Salmonella typhimurium; details: ATCC 14028, 24 h
Experimental: as §1, §2

E. coli UB1005 = format: cell-based, Escherichia coli; details: UB1005, 24 h
Experimental: as §1, §2

S. pullorum C79-13 = format: cell-based, Salmonella pullorum; details: C79-13, 24 h
Experimental: as §1, §2

[4] = tested on: BALB/c mice challenged with lethal dose of LPS; test: Protection of mice from LPS-induced lethal infection; format: in vivo; details: male BALB/c mice, LPS 20 mg/kg i.p.; PMB 2.5 mg/kg or peptide 10 mg/kg i.p. 1 h after challenge
Experimental: The 6–8 week-old male BALB/c mice (purchased from Charles River Laboratories, Beijing, China) were used to investigate the protective effect in vivo of peptides on LPS-induced infection. All animals were raised under specific pathogen-free conditions and the protocol was authorized by the Animal Care Committee of Northeast Agricultural University. Mice were divided into four groups (12 mice per group). 1 h after a challenge with a lethal dose of LPS intraperitoneal injection (20 mg/kg⋅body weight), 4 groups of mice were injected intraperitoneally with 0.5 ml PBS, PMB (2.5 mg/kg⋅body weight), dCATH(1–16) or dCATH(5–20) (10 mg/kg⋅body weight). General behavior, onset and course of clinical disease and mortality of mice were observed every 12 h for a period of 7 days.
FIGURE 8 Survival of mice from LPS-induced lethal infection by dCATH(1–16) or dCATH(5–20). Mice were subjected to a lethal dose of LPS, followed by i.p. injection of CATH(1–16) or dCATH(5–20) at 10 mg/kg or an equal volume of PBS as controls (n = 12). Survival was recorded every 12 h over 7 days.

QLVPLAIKIYRAAKRR-NH2 [dCATH(5–20)-17A]
MIC E. coli ATCC 25922 (E. coli ATCC 25922): 64 µM | MIC E. faecalis ATCC 29212 (E. faecalis ATCC 29212): 32 µM | MIC S. aureus ATCC 29213 (S. aureus ATCC 29213): 32 µM | hemolytic activity (in words) [1]: negligible hemolytic activity | MIC S. epidermidis ATCC 12228 [2]: 32 µM | GM (geometric mean of the MICs) (all tested bacteria): 70.66 µM | MIC S. typhimurium ATCC 14028 [3]: 64 µM

QLVPLAIKIYRA-NH2 [dCATH(5–16)]
MIC E. coli ATCC 25922 (E. coli ATCC 25922): 64 µM | MIC E. coli UB1005 (E. coli UB1005): 128 µM | hemolytic activity (in words) [1]: negligible hemolytic activity | GM (geometric mean of the MICs) (all tested bacteria): 190.21 µM

KRFWQLVPLAIKIYRA-NH2 [dCATH(1–16)]
MIC E. coli ATCC 25922 (E. coli ATCC 25922): 2 µM | MIC E. coli UB1005 (E. coli UB1005): 4 µM | MIC E. faecalis ATCC 29212 (E. faecalis ATCC 29212): 8 µM | MIC S. aureus ATCC 29213 (S. aureus ATCC 29213): 8 µM | MIC S. epidermidis ATCC 12228 [2]: 8 µM | GM (geometric mean of the MICs) (all tested bacteria): 4.88 µM | MIC S. typhimurium ATCC 14028 [3]: 4 µM | MIC S. pullorum C79-13 (S. pullorum C79-13): 4 µM

KRFAQLVPLAIKIYRAAKRR-NH2 [dCATH-AA]
MIC E. coli ATCC 25922 (E. coli ATCC 25922): 32 µM | MIC E. coli UB1005 (E. coli UB1005): 16 µM | MIC E. faecalis ATCC 29212 (E. faecalis ATCC 29212): 32 µM | MIC S. aureus ATCC 29213 (S. aureus ATCC 29213): 64 µM | hemolytic activity (in words) [1]: negligible hemolytic activity | MIC S. epidermidis ATCC 12228 [2]: 64 µM | GM (geometric mean of the MICs) (all tested bacteria): 39.01 µM | MIC S. typhimurium ATCC 14028 [3]: 64 µM | MIC S. pullorum C79-13 (S. pullorum C79-13): 32 µM

QLVPLAIKIYRAWKRR-NH2 [dCATH(5–20)]
MIC E. coli ATCC 25922 (E. coli ATCC 25922): 1 µM | MIC E. coli UB1005 (E. coli UB1005): 4 µM | MIC E. faecalis ATCC 29212 (E. faecalis ATCC 29212): 4 µM | MIC S. aureus ATCC 29213 (S. aureus ATCC 29213): 2 µM | MHC (minimum hemolytic concentration) [1]: 128 µM | MIC S. epidermidis ATCC 12228 [2]: 4 µM | GM (geometric mean of the MICs) (all tested bacteria): 3.28 µM | MIC S. typhimurium ATCC 14028 [3]: 4 µM | MIC S. pullorum C79-13 (S. pullorum C79-13): 8 µM

WQLVPLAIKIYRAWKRR-NH2 [dCATH(4–20)]
MIC E. coli ATCC 25922 (E. coli ATCC 25922): 1 µM | MIC E. coli UB1005 (E. coli UB1005): 4 µM | MIC E. faecalis ATCC 29212 (E. faecalis ATCC 29212): 2 µM | MIC S. aureus ATCC 29213 (S. aureus ATCC 29213): 2 µM | hemolytic activity (in words) [1]: obvious hemolytic activity | MHC (minimum hemolytic concentration) [1]: 16 µM | MIC S. epidermidis ATCC 12228 [2]: 4 µM | GM (geometric mean of the MICs) (all tested bacteria): 2.44 µM | MIC S. typhimurium ATCC 14028 [3]: 2 µM | MIC S. pullorum C79-13 (S. pullorum C79-13): 4 µM

polymyxin B [PMB]
onset and symptoms of disease (in words) [4]: delayed the onset of disease of mice with less severe symptoms

KRFWQLVPLAIKIYRAW-NH2 [dCATH(1–17)]
MIC E. coli ATCC 25922 (E. coli ATCC 25922): 1 µM | MIC E. coli UB1005 (E. coli UB1005): 1 µM | MIC E. faecalis ATCC 29212 (E. faecalis ATCC 29212): 2 µM | MIC S. aureus ATCC 29213 (S. aureus ATCC 29213): 2 µM | hemolytic activity (in words) [1]: obvious hemolytic activity | MHC (minimum hemolytic concentration) [1]: 8 µM | MIC S. epidermidis ATCC 12228 [2]: 4 µM | GM (geometric mean of the MICs) (all tested bacteria): 2.21 µM | MIC S. typhimurium ATCC 14028 [3]: 4 µM | MIC S. pullorum C79-13 (S. pullorum C79-13): 4 µM

KRFWQLVPLAIKIYRAWKRR-NH2 [dCATH]
MIC E. coli ATCC 25922 (E. coli ATCC 25922): 2 µM | MIC E. coli UB1005 (E. coli UB1005): 2 µM | MIC E. faecalis ATCC 29212 (E. faecalis ATCC 29212): 4 µM | MIC S. aureus ATCC 29213 (S. aureus ATCC 29213): 4 µM | hemolytic activity (in words) [1]: obvious hemolytic activity | MHC (minimum hemolytic concentration) [1]: 4 µM | MIC S. epidermidis ATCC 12228 [2]: 4 µM | GM (geometric mean of the MICs) (all tested bacteria): 3.62 µM | MIC S. typhimurium ATCC 14028 [3]: 8 µM | MIC S. pullorum C79-13 (S. pullorum C79-13): 4 µM

KRFWQLVPLAIKIYRAWK-NH2 [dCATH(1–18)]
MIC E. coli ATCC 25922 (E. coli ATCC 25922): 1 µM | MIC E. coli UB1005 (E. coli UB1005): 2 µM | MIC E. faecalis ATCC 29212 (E. faecalis ATCC 29212): 2 µM | MIC S. aureus ATCC 29213 (S. aureus ATCC 29213): 2 µM | hemolytic activity (in words) [1]: obvious hemolytic activity | MHC (minimum hemolytic concentration) [1]: 8 µM | MIC S. epidermidis ATCC 12228 [2]: 2 µM | GM (geometric mean of the MICs) (all tested bacteria): 1.81 µM | MIC S. typhimurium ATCC 14028 [3]: 2 µM | MIC S. pullorum C79-13 (S. pullorum C79-13): 2 µM

KRFAQLVPLAIKIYRA-NH2 [dCATH(1–16)-4A]
MIC E. coli ATCC 25922 (E. coli ATCC 25922): 16 µM | MIC E. coli UB1005 (E. coli UB1005): 32 µM | MIC E. faecalis ATCC 29212 (E. faecalis ATCC 29212): 32 µM | MIC S. aureus ATCC 29213 (S. aureus ATCC 29213): 128 µM | hemolytic activity (in words) [1]: negligible hemolytic activity | MIC S. epidermidis ATCC 12228 [2]: 64 µM | GM (geometric mean of the MICs) (all tested bacteria): 47.55 µM | MIC S. typhimurium ATCC 14028 [3]: 64 µM | MIC S. pullorum C79-13 (S. pullorum C79-13): 64 µM

FWQLVPLAIKIYRAWKRR-NH2 [dCATH(3–20)]
MIC E. coli ATCC 25922 (E. coli ATCC 25922): 1 µM | MIC E. coli UB1005 (E. coli UB1005): 2 µM | MIC E. faecalis ATCC 29212 (E. faecalis ATCC 29212): 2 µM | MIC S. aureus ATCC 29213 (S. aureus ATCC 29213): 2 µM | hemolytic activity (in words) [1]: obvious hemolytic activity | MHC (minimum hemolytic concentration) [1]: 4 µM | MIC S. epidermidis ATCC 12228 [2]: 1 µM | GM (geometric mean of the MICs) (all tested bacteria): 1.81 µM | MIC S. typhimurium ATCC 14028 [3]: 4 µM | MIC S. pullorum C79-13 (S. pullorum C79-13): 2 µM
